From patent US20160130278A1 (TAISHO PHARMACEUTICAL CO., LTD, priority 2013, published 2016)

Biological target: T1, human type 1 glycine transporter (GlyT1) (Homo sapiens, UniProt P48067)
T1 construct: T98G cells (glioma cells) expressing human type 1 glycine transporter (GlyT1) were used
T1 sequence (P48067 1-706): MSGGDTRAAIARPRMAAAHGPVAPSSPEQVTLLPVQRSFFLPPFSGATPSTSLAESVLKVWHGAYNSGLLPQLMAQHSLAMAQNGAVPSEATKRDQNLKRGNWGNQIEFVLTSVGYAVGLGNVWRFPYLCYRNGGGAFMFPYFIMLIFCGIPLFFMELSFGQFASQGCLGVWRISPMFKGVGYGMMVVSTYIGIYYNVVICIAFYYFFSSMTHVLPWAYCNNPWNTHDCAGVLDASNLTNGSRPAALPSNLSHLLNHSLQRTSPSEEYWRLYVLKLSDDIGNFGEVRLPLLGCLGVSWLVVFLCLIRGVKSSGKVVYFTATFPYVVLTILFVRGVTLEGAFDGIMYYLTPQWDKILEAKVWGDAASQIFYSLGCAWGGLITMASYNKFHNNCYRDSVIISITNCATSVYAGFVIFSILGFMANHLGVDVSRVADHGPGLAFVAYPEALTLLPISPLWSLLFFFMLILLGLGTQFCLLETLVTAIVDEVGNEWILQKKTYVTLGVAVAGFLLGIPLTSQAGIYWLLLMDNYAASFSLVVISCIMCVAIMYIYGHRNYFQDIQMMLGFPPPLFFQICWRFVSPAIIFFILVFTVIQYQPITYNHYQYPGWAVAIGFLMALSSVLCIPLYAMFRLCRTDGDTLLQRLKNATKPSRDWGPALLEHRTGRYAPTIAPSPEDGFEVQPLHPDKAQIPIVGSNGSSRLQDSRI
Assay: Glycine uptake inhibition experiment ([3H]glycine uptake)
Type: cell-based
Conditions: GlyT1
Method in brief: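 T98G glioma cells expressing human GlyT1 were pretreated 10 min with compound in HEPES buffer pH 7.4 (0.2% BSA), then incubated with compound plus 250 nM final [3H]glycine for 15 min at room temperature. Intracellular radioactivity was counted after NaOH lysis; 10 μM ALX5407 defined non-specific uptake. IC50 came from 10^−9–10^−5 M curves.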

Structure (SMILES)	IC50
O=C(NC(c1cc(Cl)ccc1Cl)C1(O)CCCC1)c1nccc(C(F)(F)F)c1Cl (stereo not drawn) [Compound 108, 3-chloro-N-[(2,5-dichlorophenyl)(1-hydroxycyclopentyl)methyl]-4-(trifluoromethyl)pyridine-2-carboxamide]	68 nM
O=C(NC(c1ccccc1Cl)[C@]1(O)CC[C@H](F)CC1)c1nccc(C(F)(F)F)c1Cl (single isomer, unassigned) [Compound 198, 3-chloro-N-[(2-chlorophenyl)(trans-4-fluoro-1-hydroxycyclohexyl)methyl]-4-(trifluoromethyl)pyridine-2-carboxamide]	200 nM
O=C(NC(c1cccc(F)c1Cl)[C@]1(O)CC[C@@H](F)CC1)c1cc(-n2ccnn2)ccc1Cl (single isomer, unassigned) [Compound 337, 2-chloro-N-[(2-chloro-3-fluorophenyl)(cis-4-fluoro-1-hydroxycyclohexyl)methyl]-5-(1H-1,2,3-triazol-1-yl)benzamide]	1900 nM
O=C(NC(c1cccc(Cl)c1)C1(O)CCC(F)(F)CC1)c1ccnc(C(F)(F)F)c1Cl (single isomer, unassigned) [Compound 167, 3-chloro-N-[(3-chlorophenyl)(4,4-difluoro-1-hydroxycyclohexyl)methyl]-2-(trifluoromethyl)pyridine-4-carboxamide]	210 nM
O=C(NC(c1cccc(F)c1)C1(O)CCCCC1)c1nccc(C(F)(F)F)c1Cl (single isomer, unassigned) [Compound 67, 3-chloro-N-[(3-fluorophenyl)(1-hydroxycyclohexyl)methyl]-4-(trifluoromethyl)pyridine-2-carboxamide]	29 nM
O=C(NC(c1cc(Cl)ccn1)C1(O)CCC(F)(F)CC1)c1nccc2ccccc12 (single isomer, unassigned) [Compound 349, N-[(4-chloropyridin-2-yl)(4,4-difluoro-1-hydroxycyclohexyl)methyl]isoquinoline-1-carboxamide]	1100 nM
CCn1cc(-c2cccc(C(NC(=O)c3ncccc3Cl)C3(O)CCCC3)c2)cn1 (stereo not drawn) [Compound 21, 3-chloro-N-{[3-(1-ethyl-1H-pyrazol-4-yl)phenyl](1-hydroxycyclopentyl)methyl}pyridine-2-carboxamide]	4600 nM
O=C(NC(c1ccc(F)cc1)C1(O)CCCC1)c1nccc(C(F)(F)F)c1Cl (stereo not drawn) [Compound 39, 3-chloro-N-[(4-fluorophenyl)(1-hydroxycyclopentyl)methyl]-4-(trifluoromethyl)pyridine-2-carboxamide]	1000 nM
O=C(NC(c1cccc(-c2cncnc2)c1)C1(O)CCCC1)c1nccc(C(F)(F)F)c1Cl (stereo not drawn) [Compound 18, 3-chloro-N-{(1-hydroxycyclopentyl)[3-(pyrimidin-5-yl)phenyl]methyl}-4-(trifluoromethyl)pyridine-2-carboxamide]	92 nM
O=C(N[C@@H](c1cccc(Cl)c1)[C@]1(O)CC[C@H](F)CC1)c1nccc(C(F)(F)F)c1Cl [Compound 187, 3-chloro-N-[(S)-(3-chlorophenyl)(trans-4-fluoro-1-hydroxycyclohexyl)methyl]-4-(trifluoromethyl)pyridine-2-carboxamide]	210 nM
O=C(NC(c1cccc(Cl)c1)C1(O)CCCC1)c1nccc(C(F)(F)F)c1Cl (single isomer, unassigned) [Compound 54, 3-chloro-N-[(3-chlorophenyl)(1-hydroxycyclopentyl)methyl]-4-(trifluoromethyl)pyridine-2-carboxamide]	57 nM

Same assay, conditions: human GlyT1

Structure (SMILES)	IC50
O=C(NC(c1ccccc1Cl)C1(O)CCC(F)(F)CC1)c1ccc(C(F)(F)F)nc1-n1nccn1 (single isomer, unassigned) [Compound 408, N-[(2-chlorophenyl)(4,4-difluoro-1-hydroxycyclohexyl)methyl]-2-(2H-1,2,3-triazol-2-yl)-6-(trifluoromethyl)pyridine-3-carboxamide]	2200 nM
